Laboratory results from publication PMC3199867, “Targeting surface nucleolin with multivalent HB-19 and related Nucant pseudopeptides results in distinct inhibitory mechanisms depending on the malignant tumor cell type” (BMC Cancer, 2011).

Tests used:
IL-6 = IL-6 production by PBMC stimulated with heat-killed Staphylococcus aureus, ELISA; assay type: cell-based; conditions: Homo sapiens, PBMC + HKSA 10^8 particles/ml, 1 μg/ml, 20 hours post-stimulation, triplicate, read-out: degree of inhibition of IL-6 production
Method: (§1) Peripheral blood mononuclear cells (PBMC) from healthy donors were prepared by Ficoll-Hypaque density gradient centrifugation and suspended in RPMI 1640 medium containing 1% (v/v) of human serum AB (from Invitrogen). PBMC (10^6 cells/0.5 ml) in the absence or presence of 10 μM of each of HB-19, N3, N6, and N7, or 1 μg/ml of dexamethasone (Sigma) were stimulated with 10^8 particles/ml of Heat-killed Staphylococcus aureus (HKSA; InvivoGen, San Diego, USA). The cultures were incubated at 37°C in a 5% CO2 incubator, and the level of TNF-α and IL-6 was monitored in the culture supernatants by ELISA (R & D Systems) at 20 hours post-stimulation.
(§2) Figure 3 HB-19 and related Nucant pseudopeptides inhibit the production of TNF-α and IL-6 by peripheral blood lymphocytes. The production of pro-inflammatory cytokines in PBMC cultures stimulated with HKSA was carried out in triplicate in the absence (Control) or presence of 10 μM of each of HB-19, N3, N6, N7, N6L, or 1 μg/ml of dexamethasone (Dex.)(Methods). The level of TNF-α (section A) and IL-6 (section B) was monitored in culture supernatants by ELISA. The data presents the mean ± SD of triplicate samples. The degree of inhibition is indicated at the top of each histogram. Statistical significance: **p < 0.01, ***p < 0.001. […]

TNF-α = TNF-α production by PBMC stimulated with heat-killed Staphylococcus aureus, ELISA; assay type: cell-based; conditions: Homo sapiens, PBMC + HKSA 10^8 particles/ml, 1 μg/ml, 20 hours post-stimulation, triplicate, read-out: degree of inhibition of TNF-α production
Method: as §1, §2

T29 [1] = test: Cell growth / multiplication (viable cell number); assay type: cell-based, murine; conditions: for multiplication index of cells at day 3 compared to day 0: T29 seeded at 150,000 cells/ml, 20 μM (pentavalent), triplicate, control 17.5-fold
Method: (§3) Human breast (MDA-MB-231, MDA-MB-435 [37]), prostate (LNCaP, from American Type Culture Collection, ATCC, Rockville, MD), and cervical (HeLa) epithelial cancer cells were grown in DMEM-glutamax medium (Gibco Invitrogen, Cergy-Pontoise, France) containing GlutaMAX™, 4.5 g/l glucose and supplemented with 10% heat-inactivated (56°C for 30 min) fetal bovine serum (FBS; Hyclone, Thermo Fisher Scientific, Inc). Human SW480 cells are derived from a grade 3-4 colon carcinoma, while the highly metastatic counterpart SW620 is established from the lymph node of a person. Both SW480 and SW620 cells (obtained from Francis Raul, IRCAD) are highly tumorigenic in nude mice. They were cultured in D-MEM, 10% FCS. The murine melanoma TIII cell line was obtained from Armelle Prévost-Blondel. Murine T29 lymphoma cells, obtained from Philippe Kastner (CNRS, Strasbourg), have been established from Ik^L/L tumors from mice carrying a hypomorphic mutation (Ik^L/L) in the Ikaros gene encoding a transcription factor that regulates lymphocyte differentiation, and acts also as a tumor suppressor in T lymphocytes. The T29 cells were cultured in RPMI medium containing 25 mM Hepes pH 7.6, 1 mM sodium pyruvate, and 10% FCS. Human leukemia cell lines, Jurkat (acute T cell leukemia), HuT 78 (cutaneous T lymphocyte), RAJI (Burkitt lymphoma), and HL60 (promyelocytic leukemia) were cultured in RPMI-1640 medium (Gibco) containing GlutaMAX™, and supplemented with 10% heat-inactivated FBS as described before. The wild-type Chinese hamster ovary cell line (CHO K1) was purchased from American Type Culture Collection (ATCC; Rockville, MD). The CHO LRP1-null cell line (CHO-13-5-1) was kindly provided by D. Strickland [47]. They were cultured in Ham's F12K medium. All cells were cultured with 10% (v/v) heat inactivated (56°C, 30 min) fetal bovine serum (FBS) (Roche Molecular Biochemicals, Indianapolis, IN) and 50 international units/mL penicillin-streptomycin (Invitrogen). Cell death was monitored conveniently by uptake of the trypan blue dye due to plasma membrane permeability of dying and/or dead cells.
Figure 7 HB-19 and related multivalent Nucant pseudopeptides induce cell death associated with internucleosomal DNA fragmentation. A. Inhibition of cell multiplication by HB-19 and related multivalent Nucant pseudopeptides. […] Cell cultures (in triplicate) were monitored for viable cell number daily for 3 days. The histograms show the mean number of cells/ml ± SD of triplicate samples. The multiplication index of cells at day 3 compared to day 0 (the day of seeding) is given at the top of histogram. At 3 days post passage of T29 cells, the cell multiplication index of cells is 17.5-fold compared to 8.9-, 7.2-, 2.2-, and 1.7-fold in the presence of treatment with HB-19, N3, N6, and N7, respectively. B. N7 inhibits T29 cell multiplication in a dose dependent manner. T29 cells seeded at 100,000/ml in 2 ml in the absence (0 μM) or presence of N7 at various concentrations 2.5, 5, 10 and 20 μM were cultured for 3 days and the number of viable cells was determined at day 1, 2, and 3 post-seeding. The ordinate gives the cell number/ml (the mean of 2 samples) in each culture at day 1, 2, and 3 post-seeding. C. Partial cleavage of surface/cytoplasmic nucleolin. T29 cells were cultured for 45 min with 0 (for control; lanes C), 2 and 10 μM of N6 before preparation of cytoplasmic (that contains both surface and cytoplasmic nucleolin) and nuclear extract and analysis by immunoblotting using rabbit polyclonal antibodies that are directed against the first 26 (panel anti-Nt Ab) and the last 16 amino acids (panel anti-Ct Ab) of human nucleolin, respectively. The nuclear extracts were analyzed by immunoblotting using anti-Nt Ab (Methods). […]

T29 [2] = test: Cell death (trypan blue uptake); assay type: cell-based, murine; conditions: T29 cells, 0-20 μM, read-out: Cell death: IC50 24 hours post-passage
Method: as §3

melanoma TIII cell = test: Cell adhesion; assay type: cell-based, murine; conditions: after 5 hours of cell seeding, vs untreated control, mean of at least 2 independent experiments
TIII = test: Cell growth / proliferation (viable cell number); assay type: cell-based, murine; conditions: after 3 days of culture, vs untreated control, mean of at least 2 independent experiments
Method: as §3

CHO K1 cells = test: Midkine (MK) internalization, confocal immunofluorescence; assay type: cell-based, Chinese hamster; conditions: CHO K1, pretreatment 5 μM 30 min at 20°C, then MK 0.2 μM 90 min at 37°C
Method: (§4) CHO K1 and CHO 13 cells (as in the Additional file 2, Figure 3S) were incubated with 0.2 µM Midkine (MK) for 90 min at 37°C or at 20°C before fixation with PFA. In sections C and E, cells were first incubated (30 min at 20°C) with 5 µM HB-19 before addition of MK (0.2 µM) and further incubation at 37°C for 90 min. […] Experimental conditions for confocal immunofluorescence microscopy were as described previously.

[3] = test system: CHO 13 cells (LRP-1 null); test: as above; assay type: cell-based, Chinese hamster; conditions: CHO 13 (LRP-1 null), pretreatment 5 μM 30 min at 20°C, then MK 0.2 μM 90 min at 37°C
Method: as §4

[4] = test system: human breast tumor cell xenografts; conditions: nude mice; cited from earlier work
Description: (§5) The importance of cell-surface nucleolin in cancer biology was recently highlighted by studies showing that ligands of nucleolin play critical role in tumorigenesis and angiogenesis. Accordingly, we recently reported that both of these events are suppressed by targeting surface nucleolin with the HB-19 pseudopeptide, a potent antagonist that forms an irreversible complex with surface nucleolin [9, 37]. By binding to the RGG domain of nucleolin, HB-19 prevents binding of growth factors to cells, triggers calcium entry into cells, inhibits MAP kinase activation, and down-regu ...

spontaneous melanoma = conditions: RET mice, treatment for several months; cited from earlier work
Description: as §5

[5] = molecular target: nucleolin (cell-surface expressed nucleolin), human (human (endogenous in HeLa, CEM, MDA-MB-231, HuT 78 and other human cell lines)) (UniProt P19338)
nucleolin (cell-surface expressed nucleolin), human (human (endogenous in HeLa, CEM, MDA-MB-231, HuT 78 and other human cell lines)), sequence (P19338 whole entry): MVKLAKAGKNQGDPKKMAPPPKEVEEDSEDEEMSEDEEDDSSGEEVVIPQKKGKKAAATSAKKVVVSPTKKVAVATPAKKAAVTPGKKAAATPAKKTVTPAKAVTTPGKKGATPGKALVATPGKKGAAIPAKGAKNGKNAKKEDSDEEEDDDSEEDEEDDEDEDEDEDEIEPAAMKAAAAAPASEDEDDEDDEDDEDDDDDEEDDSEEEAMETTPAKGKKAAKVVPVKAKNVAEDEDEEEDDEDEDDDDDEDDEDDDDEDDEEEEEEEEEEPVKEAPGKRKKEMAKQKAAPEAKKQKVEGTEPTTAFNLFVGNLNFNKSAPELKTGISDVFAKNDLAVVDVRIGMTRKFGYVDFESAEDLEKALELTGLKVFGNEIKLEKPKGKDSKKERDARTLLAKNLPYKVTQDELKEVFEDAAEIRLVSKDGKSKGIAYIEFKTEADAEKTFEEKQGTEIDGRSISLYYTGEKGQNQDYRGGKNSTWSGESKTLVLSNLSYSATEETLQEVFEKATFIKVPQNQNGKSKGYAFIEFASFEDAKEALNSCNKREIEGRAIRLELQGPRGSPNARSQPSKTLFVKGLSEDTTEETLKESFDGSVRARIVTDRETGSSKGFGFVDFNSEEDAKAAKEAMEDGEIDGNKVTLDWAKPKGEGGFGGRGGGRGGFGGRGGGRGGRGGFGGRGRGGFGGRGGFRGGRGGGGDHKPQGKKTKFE

## C[C@@H]1C[C@H]2[C@@H]3CCC4=CC(=O)C=C[C@]4(C)[C@@]3(F)[C@@H](O)C[C@]2(C)[C@@]1(O)C(=O)CO [Dex., dexamethasone]
IL-6
  inhibition at 1 µg/mL: 62%
TNF-α
  inhibition at 1 µg/mL: 61%

## Ac-Lys-Aib-Gly-Lys-Aib-Gly-Lys-Aib-Gly-Lys-Aib-Gly-Lys-Aib-Gly-CONH2 [Nucant N3, Presents pentavalently the pseudo-tripeptide Lysψ(CH2N)-Pro-Arg coupled to the polypeptide template containing Aib]
T29 [1]
  multiplication index of cells at day 3 compared to day 0: 7.2 fold
T29 [2]
  IC50: > 20 µM
Melanoma TIII cell; 5 μM
  % Inhibition of cell Adhesion: No effect
Melanoma TIII cell; 10 μM
  % Inhibition of cell Adhesion: 15%
Melanoma TIII cell; 20 μM
  % Inhibition of cell Adhesion: 24%
TIII; 5 μM
  % Inhibition of cell Proliferation: No effect
TIII; 10 μM
  % Inhibition of cell Proliferation: 10%
TIII; 20 μM
  % Inhibition of cell Proliferation: 36%

## H2NLys-Lys-Lys-Gly-Pro-Lys-Glu-Lys-AhxCONH2 [HB-19, Surface nucleolin antagonist pseudopeptide presenting pentavalently the pseudo-tripeptide Lysψ(CH2N)-Pro-Arg coupled to a peptide template]
T29 [1]; T29 cells, 0-20 μM, number of viable cells at 3 days post-treatment, read-out: Cell number: IC50 72 hours post-passage
  IC50: 20 µM
T29 [1]
  multiplication index of cells at day 3 compared to day 0: 8.9 fold
T29 [2]
  IC50: > 20 µM
CHO K1 cells
  MK entry: prevents MK entry
[3]
  MK entry: not affected
[4]
  progression of established human breast tumor cell xenografts: markedly suppresses the progression
Spontaneous melanoma
  onset and frequency of spontaneous melanoma: delays significantly
  toxicity to normal tissue: no toxicity

## Nucant 6 pseudopeptide
[5]
  inhibition of HIV-1 LAI entry into HeLa CD4+ (LTR-LacZ) cells, β-galactosidase activity at 48 h, 0.1-0.8 μM; activity against the pentavalent N3 and HB-19: > 2 fold

## Nucant 6L pseudopeptide
[5]
  inhibition of HIV-1 LAI entry into HeLa CD4+ (LTR-LacZ) cells, β-galactosidase activity at 48 h, 0.05-0.8 μM; activity against the pentavalent N3 and HB-19: > 4 fold

## Nucant 7 pseudopeptide
[5]
  inhibition of HIV-1 LAI entry into HeLa CD4+ (LTR-LacZ) cells, β-galactosidase activity at 48 h, 0.1-0.8 μM; activity against the pentavalent N3 and HB-19: > 2 fold
